In assay [1] the target is PI3Kalpha (Homo sapiens (Human), UniProt P42336). As to the kind of experiment: HTRF PI3K biochemical assay, alpha isoform (selectivity versus delta). The settings on record: relative ratio PI3K-alpha IC50 value / PI3K-delta IC50 value. The method in brief:
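Recombinant human PI3Kα (0.5 nM) preincubated 15 min with compound, then reacted 1 h at room temperature with 100 uM ATP and 5 uM PIP2. PIP3 formation detected by HTRF competition with biotin-PIP3 for GST-GRP1 PH domain (Eu/APC, 665/620 nm); product lowers signal.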
(Time-resolved FRET reads energy transfer from a long-lived donor to a nearby acceptor.)

Assay [2] concerns the target PI3Kdelta (Homo sapiens (Human), UniProt O00329). As to the kind of experiment: HTRF PI3K biochemical assay, delta isoform. The settings on record: 0.3 nM enzyme, 100 uM ATP, 5 uM PIP2, form screened per table. In a few lines: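 PI3Kδ at 0.3 nM preincubated 15 min with compound, then reacted 1 h at room temperature with 100 uM ATP and 5 uM PIP2. PIP3 product detected by competitive HTRF displacing biotin-PIP3 from GST-GRP1 PH domain, so signal falls with activity. 10-point 3-fold dose response.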

Data on 17 compounds can be found in patent publication US11230547B2, “Purine inhibitors of human phosphatidylinositol 3-kinase delta” (Merck Sharp & Dohme Corp., priority 2017, dated 2022).

What is called pIC50 is the negative decadic logarithm of the IC50, by convention in mol/L. A low value points to a large IC50.

Each structure is given as a SMILES string. pIC50: −log10 of the molar value.

Chain of PI3Kalpha (P42336 whole entry, the tested form may be a part, canonical isoform): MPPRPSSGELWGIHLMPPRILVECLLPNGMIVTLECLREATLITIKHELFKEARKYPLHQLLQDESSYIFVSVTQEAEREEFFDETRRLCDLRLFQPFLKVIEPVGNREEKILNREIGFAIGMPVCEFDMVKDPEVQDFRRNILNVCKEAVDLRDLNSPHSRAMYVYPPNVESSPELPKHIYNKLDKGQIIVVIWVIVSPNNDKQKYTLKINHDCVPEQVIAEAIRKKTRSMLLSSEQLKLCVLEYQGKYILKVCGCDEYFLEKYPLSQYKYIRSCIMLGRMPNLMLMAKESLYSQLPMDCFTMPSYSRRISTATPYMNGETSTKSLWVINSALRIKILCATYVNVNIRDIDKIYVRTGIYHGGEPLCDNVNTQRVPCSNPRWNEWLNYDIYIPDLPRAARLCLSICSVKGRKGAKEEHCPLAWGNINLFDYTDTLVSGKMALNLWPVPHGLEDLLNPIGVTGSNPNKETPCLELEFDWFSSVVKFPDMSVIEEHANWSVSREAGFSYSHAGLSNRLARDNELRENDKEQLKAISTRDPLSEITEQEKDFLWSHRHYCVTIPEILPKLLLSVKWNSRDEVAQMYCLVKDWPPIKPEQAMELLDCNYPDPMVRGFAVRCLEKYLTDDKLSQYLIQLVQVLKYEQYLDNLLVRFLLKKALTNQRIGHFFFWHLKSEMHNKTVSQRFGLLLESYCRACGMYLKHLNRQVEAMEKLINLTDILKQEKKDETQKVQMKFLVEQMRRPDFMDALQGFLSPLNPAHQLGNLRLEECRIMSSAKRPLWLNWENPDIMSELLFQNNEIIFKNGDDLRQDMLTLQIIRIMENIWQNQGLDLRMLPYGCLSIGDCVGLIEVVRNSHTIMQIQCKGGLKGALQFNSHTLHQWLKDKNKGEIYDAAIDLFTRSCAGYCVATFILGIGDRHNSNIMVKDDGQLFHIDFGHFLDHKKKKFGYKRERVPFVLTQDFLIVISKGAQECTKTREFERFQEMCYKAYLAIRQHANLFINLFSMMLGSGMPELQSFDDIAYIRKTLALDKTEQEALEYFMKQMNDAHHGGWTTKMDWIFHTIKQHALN
Chain of PI3Kalpha (P27986 whole entry partner, the tested form may be a part, canonical isoform): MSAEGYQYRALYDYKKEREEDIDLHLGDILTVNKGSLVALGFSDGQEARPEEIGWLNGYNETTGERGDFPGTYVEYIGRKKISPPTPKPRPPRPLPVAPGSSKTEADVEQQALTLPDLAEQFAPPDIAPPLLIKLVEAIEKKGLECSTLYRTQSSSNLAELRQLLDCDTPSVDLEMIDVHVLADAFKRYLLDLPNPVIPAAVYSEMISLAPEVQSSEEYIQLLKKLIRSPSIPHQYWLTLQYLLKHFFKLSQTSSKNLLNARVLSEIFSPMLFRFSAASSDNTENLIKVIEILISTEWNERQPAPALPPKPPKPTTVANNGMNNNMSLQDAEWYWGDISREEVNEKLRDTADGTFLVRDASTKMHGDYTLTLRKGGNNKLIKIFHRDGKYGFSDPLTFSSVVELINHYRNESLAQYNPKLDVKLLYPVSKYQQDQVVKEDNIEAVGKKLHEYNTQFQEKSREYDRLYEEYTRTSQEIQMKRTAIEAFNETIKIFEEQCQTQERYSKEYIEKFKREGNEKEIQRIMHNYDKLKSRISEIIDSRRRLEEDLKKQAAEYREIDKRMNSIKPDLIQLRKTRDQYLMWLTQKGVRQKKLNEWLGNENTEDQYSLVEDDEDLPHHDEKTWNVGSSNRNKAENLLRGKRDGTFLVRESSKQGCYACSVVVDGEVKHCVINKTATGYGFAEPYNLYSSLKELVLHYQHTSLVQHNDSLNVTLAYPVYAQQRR
Chain of PI3Kdelta (O00329 whole entry, the tested form may be a part, canonical isoform): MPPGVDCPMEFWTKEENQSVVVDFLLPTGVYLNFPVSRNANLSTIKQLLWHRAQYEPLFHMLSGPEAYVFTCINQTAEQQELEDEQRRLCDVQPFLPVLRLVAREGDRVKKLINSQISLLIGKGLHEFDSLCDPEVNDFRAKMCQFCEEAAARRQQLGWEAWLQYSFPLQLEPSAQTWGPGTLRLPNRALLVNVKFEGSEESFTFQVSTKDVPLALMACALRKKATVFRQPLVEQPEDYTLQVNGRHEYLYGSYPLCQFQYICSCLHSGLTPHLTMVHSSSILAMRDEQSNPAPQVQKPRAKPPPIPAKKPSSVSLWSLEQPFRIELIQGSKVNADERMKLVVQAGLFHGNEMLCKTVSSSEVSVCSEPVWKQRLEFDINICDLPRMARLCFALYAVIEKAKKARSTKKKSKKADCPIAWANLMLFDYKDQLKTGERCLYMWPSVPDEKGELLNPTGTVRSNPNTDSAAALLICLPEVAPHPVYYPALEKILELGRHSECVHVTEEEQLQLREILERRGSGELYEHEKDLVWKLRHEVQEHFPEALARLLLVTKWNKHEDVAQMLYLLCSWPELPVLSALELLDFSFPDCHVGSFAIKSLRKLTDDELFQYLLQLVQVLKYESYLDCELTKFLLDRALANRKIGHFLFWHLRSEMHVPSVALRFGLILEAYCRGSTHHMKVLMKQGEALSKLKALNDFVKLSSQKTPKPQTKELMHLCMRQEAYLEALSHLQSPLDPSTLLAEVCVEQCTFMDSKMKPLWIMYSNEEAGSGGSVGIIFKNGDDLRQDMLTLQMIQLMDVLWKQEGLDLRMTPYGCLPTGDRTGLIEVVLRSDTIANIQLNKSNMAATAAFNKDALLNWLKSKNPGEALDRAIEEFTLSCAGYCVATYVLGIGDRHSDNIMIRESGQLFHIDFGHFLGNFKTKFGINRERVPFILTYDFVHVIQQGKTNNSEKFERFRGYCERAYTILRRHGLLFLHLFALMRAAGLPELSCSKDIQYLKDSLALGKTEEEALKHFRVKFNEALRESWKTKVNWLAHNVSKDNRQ
Chain of PI3Kdelta (P27986 whole entry partner, the tested form may be a part, canonical isoform): as the sequence (P27986 whole entry partner, the tested form may be a part, canonical isoform) above

As for `Cn1cc(-c2ncc(C#N)c(N3CC4C[C@H]3CN4C(=O)c3cocn3)n2)cn1` (stereo in doubt) [Compound 2-11, 2-(1-methyl-1H-pyrazol-4-yl)-4-[(1S,4R)-5-(1,3-oxazol-4-ylcarbonyl)-2,5-diazabicyclo[2.2.1]hept-2-yl]pyrimidine-5-carbonitrile], the “Selectivity versus PI3Kalpha” value in assay [1] is >10. This compound also showed a pIC50 in assay [2] of 5.96.
For `COCCc1nc(N2CCN(C(=O)C3CC3)[C@H](C)C2)nc(-c2cnn(C)c2)c1C#N` [Compound 6-12, 2-[(3R)-4-(cyclopropylcarbonyl)-3-methylpiperazin-1-yl]-4-(2-methoxyethyl)-6-(1-methyl-1H-pyrazol-4-yl)pyrimidine-5-carbonitrile], in that order: >10 and 7.24.
For `Cc1cncc(-c2ncc(C#N)c(N3C[C@@H]4CC3CN4c3cccc(F)c3)n2)c1` (stereo in doubt) [Compound 1-19, 4-[(1R,4S)-5-(3-fluorophenyl)-2,5-diazabicyclo[2.2.1]hept-2-yl]-2-(5-methylpyridin-3-yl)pyrimidine-5-carbonitrile], in that order: >10 and 6.54.
For `C[C@@H]1CN(c2nc(CCC(F)(F)F)c(C#N)c(-c3cnn(C)c3)n2)CCN1C(=O)C1CC1` [Compound 6-26, 2-[(3R)-4-(cyclopropylcarbonyl)-3-methylpiperazin-1-yl]-4-(1-methyl-1H-pyrazol-4-yl)-6-(3,3,3-trifluoropropyl)pyrimidine-5-carbonitrile], in that order: >10 and 7.92.
`CCOC(=O)c1cnc(N2CCN(C(=O)C3CC3)[C@H](C)C2)nc1-c1cnn(C)c1` [Compound 5-12, ethyl 2-[(3R)-4-(cyclopropylcarbonyl)-3-methylpiperazin-1-yl]-4-(1-methyl-1H-pyrazol-4-yl)pyrimidine-5-carboxylate]: in assay [1], the “Selectivity versus PI3Kalpha” value is >10. In addition, the pIC50 in assay [2] was 6.74.
For `C[C@@H]1CN(c2nc(-c3cnn(C)c3)ncc2C#N)CCN1C(=O)C1CCCC1` [Compound 4-6, 4-[(3R)-4-(cyclopentylcarbonyl)-3-methylpiperazin-1-yl]-2-(1-methyl-1H-pyrazol-4-yl)pyrimidine-5-carbonitrile], in that order: >10 and 6.06.
On the same counts, the results for `Cn1cc(-c2ncc(C#N)c(N3CC4C[C@H]3CN4c3cccc(C4(C)CC4)c3)n2)cn1` (stereo in doubt) [Compound 1-12, 4-{(1S,4R)-5-[3-(1-methylcyclopropyl)phenyl]-2,5-diazabicyclo[2.2.1]hept-2-yl}-2-(1-methyl-1H-pyrazol-4-yl)pyrimidine-5-carbonitrile] are >10 and 6.39.
Consider `Cc1nc(-c2cnn(C)c2)nc(N2CCN(C(=O)C3CC3)[C@H](C)C2)c1C#N` [Compound 6-10, 4-[(3R)-4-(cyclopropylcarbonyl)-3-methylpiperazin-1-yl]-6-methyl-2-(1-methyl-1H-pyrazol-4-yl)pyrimidine-5-carbonitrile], for which the “Selectivity versus PI3Kalpha” value in assay [1] is reported as >10. In addition, in assay [2], the pIC50 was 6.74.
On the same counts, the results for `C[C@@H]1CN(c2cc(C#N)nc(-c3cnn(C)c3)n2)CCN1C(=O)C1CC1` [Compound 5-3, 6-[(3R)-4-(cyclopropylcarbonyl)-3-methylpiperazin-1-yl]-2-(1-methyl-1H-pyrazol-4-yl)pyrimidine-4-carbonitrile] are >10 and 6.62.
Turning to `Cc1nn(C)cc1-c1ncc(C#N)c(N2CCN(C(=O)C3CC3)[C@H](C)C2)n1` [Compound 6-28, 4-[(3R)-4-(cyclopropylcarbonyl)-3-methylpiperazin-1-yl]-2-(1,3-dimethyl-1H-pyrazol-4-yl)pyrimidine-5-carbonitrile], the “Selectivity versus PI3Kalpha” value in assay [1] is >10. The same compound showed a negative-log IC50 (pIC50) in assay [2] of 6.85.
For `C[C@@H]1CN(c2nc(-c3cnn(C)c3)nc(NC(=O)NCC(F)(F)F)c2C#N)CCN1C(=O)C1CC1` [Compound 6-16, 1-{5-cyano-6-[(3R)-4-(cyclopropylcarbonyl)-3-methylpiperazin-1-yl]-2-(1-methyl-1H-pyrazol-4-yl)pyrimidin-4-yl}-3-(2,2,2-trifluoroethyl)urea], in that order: >10 and 7.80.
On the same counts, the results for `N#Cc1cnc(N2CCOCC2)nc1N1CC2C[C@H]1CN2c1cccc(F)c1` (stereo in doubt) [Compound 1-23, 4-[(1S,4R)-5-(3-fluorophenyl)-2,5-diazabicyclo[2.2.1]hept-2-yl]-2-morpholin-4-ylpyrimidine-5-carbonitrile] are >10 and 6.40.
On to `C[C@@H]1CN(c2nc(-c3cnn(C)c3)nc(NCC(F)(F)F)c2C#N)CCN1C(=O)C1CC1` [Compound 6-4, 4-[(3R)-4-(cyclopropylcarbonyl)-3-methylpiperazin-1-yl]-2-(1-methyl-1H-pyrazol-4-yl)-6-[(2,2,2-trifluoroethyl)amino]pyrimidine-5-carbonitrile], for which the “Selectivity versus PI3Kalpha” value in assay [1] is reported as >10. Also, the pIC50 in assay [2] was 8.08.
For `CCCS(=O)(=O)N1C[C@@H]2CC1CN2c1nc(-c2cnn(C)c2)ncc1C#N` (stereo in doubt) [Compound 2-14, 2-(1-methyl-1H-pyrazol-4-yl)-4-[(1S,4R)-5-(propylsulfonyl)-2,5-diazabicyclo[2.2.1]hept-2-yl]pyrimidine-5-carbonitrile], in that order: >10 and 6.21.
For `N#Cc1cnc(N2Cc3cn[nH]c3C2)nc1N1CC2C[C@H]1CN2c1cccc(F)c1` (stereo in doubt) [Compound 1-3, 2-(4,6-dihydropyrrolo[3,4-c]pyrazol-5(1H)-yl)-4-[(1S,4R)-5-(3-fluorophenyl)-2,5-diazabicyclo[2.2.1]hept-2-yl]pyrimidine-5-carbonitrile], in that order: >10 and 7.07.
For `Cn1cc(-c2ncc(C#N)c(N3CC4C[C@H]3CN4CC3CC3)n2)cn1` (stereo in doubt) [Compound 2-3, 4-[(1S,4R)-5-(cyclopropylmethyl)-2,5-diazabicyclo[2.2.1]hept-2-yl]-2-(1-methyl-1H-pyrazol-4-yl)pyrimidine-5-carbonitrile], in that order: 8 and 5.85.
`C[C@@H]1CN(c2nc(-c3cnn(C)c3)nc(Cl)c2C#N)CCN1C(=O)C1CC1` [Compound 6-5, 4-chloro-6-[(3R)-4-(cyclopropylcarbonyl)-3-methylpiperazin-1-yl]-2-(1-methyl-1H-pyrazol-4-yl)pyrimidine-5-carbonitrile]: the “Selectivity versus PI3Kalpha” value in assay [1] is reported as >10. The compound also showed a pIC50 in assay [2] of 6.85.
